#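 1) Cells in 96-well plates. 2) Compound, 48 h, 5 concentrations. 3) Linear interpolation between surrounding doses. 4) Unreached endpoint = highest concentration. At the GI50, growth is halved. TGI is the concentration that stops growth completely.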
# How the values were obtained:
# Test in all cases: NCI tumour cell line growth inhibition, 48 h
# 786-0 renal = tested on: 786-0 renal
# CAKI-1 renal = tested on: CAKI-1 renal
# DLD-1 colon = tested on: DLD-1 colon
# HCT-116 colon = tested on: HCT-116 colon
# HOP-62 NSCLC = tested on: HOP-62 NSCLC
# KM12 colon = tested on: KM12 colon
# LOX IMVI melanoma = tested on: LOX IMVI melanoma
# MALME-3M melanoma = tested on: MALME-3M melanoma
# MCF7 breast = tested on: MCF7 breast
# MDA-MB-231 breast = tested on: MDA-MB-231 breast
# NCI-H23 lung = tested on: NCI-H23 lung
# NCI-H522 lung = tested on: NCI-H522 lung
# OVCAR-4 ovarian = tested on: OVCAR-4 ovarian
# OVCAR-8 ovarian = tested on: OVCAR-8 ovarian
# P388 leukemia = tested on: P388 leukemia
# SK-OV-3 ovarian = tested on: SK-OV-3 ovarian
# SNB-75 CNS = tested on: SNB-75 CNS
# SNB-78 CNS = tested on: SNB-78 CNS
# SW-620 colon = tested on: SW-620 colon
# U251 CNS = tested on: U251 CNS
# UO-31 renal = tested on: UO-31 renal
# A549 NSCLC = tested on: A549 NSCLC
# ACHN renal = tested on: ACHN renal
# CCRF-CEM leukemia = tested on: CCRF-CEM leukemia
# COLO 205 colon = tested on: COLO 205 colon
# DMS 114 small cell lung = tested on: DMS 114 small cell lung
# DMS 273 small cell lung = tested on: DMS 273 small cell lung
# EKVX NSCLC = tested on: EKVX NSCLC
# HCC-2998 colon = tested on: HCC-2998 colon
# HL-60(TB) leukemia = tested on: HL-60(TB) leukemia
# HOP-18 NSCLC = tested on: HOP-18 NSCLC
# HOP-92 NSCLC = tested on: HOP-92 NSCLC
# HT29 colon = tested on: HT29 colon
# K-562 leukemia = tested on: K-562 leukemia
# KM20L2 colon = tested on: KM20L2 colon
# LXFL 529 NSCLC = tested on: LXFL 529 NSCLC
# M14 melanoma = tested on: M14 melanoma
# M19-MEL melanoma = tested on: M19-MEL melanoma
# MOLT-4 leukemia = tested on: MOLT-4 leukemia
# NCI-H226 lung = tested on: NCI-H226 lung
# NCI-H460 lung = tested on: NCI-H460 lung
# OVCAR-3 ovarian = tested on: OVCAR-3 ovarian
# OVCAR-5 ovarian = tested on: OVCAR-5 ovarian
# RPMI-8226 leukemia = tested on: RPMI-8226 leukemia
# RXF 393 renal = tested on: RXF 393 renal
# RXF-631 renal = tested on: RXF-631 renal
# SF-268 CNS = tested on: SF-268 CNS
# SF-295 CNS = tested on: SF-295 CNS
# SF-539 CNS = tested on: SF-539 CNS
# SK-MEL-2 melanoma = tested on: SK-MEL-2 melanoma
# SK-MEL-28 melanoma = tested on: SK-MEL-28 melanoma
# SK-MEL-5 melanoma = tested on: SK-MEL-5 melanoma
# SN12C renal = tested on: SN12C renal
# SNB-19 CNS = tested on: SNB-19 CNS
# SR leukemia = tested on: SR leukemia
# TK-10 renal = tested on: TK-10 renal
# UACC-257 melanoma = tested on: UACC-257 melanoma
# UACC-62 melanoma = tested on: UACC-62 melanoma
# XF 498 CNS = tested on: XF 498 CNS
# A498 renal = tested on: A498 renal
# HCT-15 colon = tested on: HCT-15 colon
# IGROV1 ovarian = tested on: IGROV1 ovarian
smiles,measurement,setting,value
COc1ccc2c3c(c4cc(OC)c(OC)cc4c2c1)C[C@H]1CCCCN1C3,TGI,786-0 renal,0.000212 µM
same,TGI,CAKI-1 renal,0.00103 µM
same,TGI,DLD-1 colon,0.038 µM
same,TGI,HCT-116 colon,0.011 µM
same,TGI,HOP-62 NSCLC,1.65e-06 µM
same,TGI,KM12 colon,1.84e-06 µM
same,TGI,LOX IMVI melanoma,0.029 µM
same,GI50,MALME-3M melanoma,1.82 pM
same,TGI,MALME-3M melanoma,9.88e-06 µM
same,TGI,MCF7 breast,0.0316 µM
same,TGI,MDA-MB-231 breast,1.92 pM
same,GI50,NCI-H23 lung,2.01 pM
same,TGI,NCI-H23 lung,0.000279 µM
same,GI50,NCI-H522 lung,2.82 pM
same,TGI,NCI-H522 lung,0.000216 µM
same,TGI,OVCAR-4 ovarian,0.00591 µM
same,TGI,OVCAR-8 ovarian,0.0231 µM
same,TGI,P388 leukemia,0.00512 µM
same,TGI,SK-OV-3 ovarian,0.0149 µM
same,GI50,SNB-75 CNS,1.78 pM
same,TGI,SNB-75 CNS,0.000103 µM
same,TGI,SNB-78 CNS,0.00897 µM
same,GI50,SW-620 colon,0.00889 µM
same,TGI,U251 CNS,0.0212 µM
same,TGI,UO-31 renal,4.42e-06 µM
CCOC(=O)/C(=C/c1ccc[nH]1)P(=O)(OCC)OCC,TGI,786-0 renal,> 100 µM
same,TGI,A549 NSCLC,> 100 µM
same,TGI,ACHN renal,> 100 µM
same,TGI,CAKI-1 renal,> 100 µM
same,TGI,CCRF-CEM leukemia,> 100 µM
same,TGI,COLO 205 colon,> 100 µM
same,TGI,DLD-1 colon,> 100 µM
same,TGI,DMS 114 small cell lung,> 100 µM
same,TGI,DMS 273 small cell lung,> 100 µM
same,TGI,EKVX NSCLC,> 100 µM
same,TGI,HCC-2998 colon,> 100 µM
same,TGI,HCT-116 colon,> 100 µM
same,TGI,HL-60(TB) leukemia,> 100 µM
same,TGI,HOP-18 NSCLC,> 100 µM
same,TGI,HOP-62 NSCLC,> 100 µM
same,TGI,HOP-92 NSCLC,> 100 µM
same,TGI,HT29 colon,> 100 µM
same,TGI,K-562 leukemia,> 100 µM
same,TGI,KM12 colon,> 100 µM
same,TGI,KM20L2 colon,> 100 µM
same,TGI,LOX IMVI melanoma,> 100 µM
same,TGI,LXFL 529 NSCLC,> 100 µM
same,TGI,M14 melanoma,> 100 µM
same,TGI,M19-MEL melanoma,> 100 µM
same,TGI,MALME-3M melanoma,> 100 µM
same,TGI,MOLT-4 leukemia,> 100 µM
same,TGI,NCI-H226 lung,> 100 µM
same,TGI,NCI-H23 lung,> 100 µM
same,TGI,NCI-H460 lung,> 100 µM
same,TGI,NCI-H522 lung,> 100 µM
same,TGI,OVCAR-3 ovarian,> 100 µM
same,TGI,OVCAR-4 ovarian,> 100 µM
same,TGI,OVCAR-5 ovarian,> 100 µM
same,TGI,OVCAR-8 ovarian,> 100 µM
same,TGI,RPMI-8226 leukemia,> 100 µM
same,TGI,RXF 393 renal,> 100 µM
same,TGI,RXF-631 renal,> 100 µM
same,TGI,SF-268 CNS,> 100 µM
same,TGI,SF-295 CNS,> 100 µM
same,TGI,SF-539 CNS,> 100 µM
same,TGI,SK-MEL-2 melanoma,> 100 µM
same,TGI,SK-MEL-28 melanoma,> 100 µM
same,TGI,SK-MEL-5 melanoma,> 100 µM
same,TGI,SK-OV-3 ovarian,> 100 µM
same,TGI,SN12C renal,> 100 µM
same,TGI,SNB-19 CNS,> 100 µM
same,TGI,SNB-75 CNS,> 100 µM
same,TGI,SNB-78 CNS,> 100 µM
same,TGI,SR leukemia,> 100 µM
same,TGI,SW-620 colon,> 100 µM
same,TGI,TK-10 renal,> 100 µM
same,TGI,U251 CNS,> 100 µM
same,TGI,UACC-257 melanoma,> 100 µM
same,TGI,UACC-62 melanoma,> 100 µM
same,TGI,UO-31 renal,> 100 µM
same,TGI,XF 498 CNS,> 100 µM
O=C(O)C12C3C4C1C1C2C3C41I (configuration not stated),TGI,786-0 renal,> 100 µM
same,TGI,A498 renal,> 100 µM
same,TGI,A549 NSCLC,> 100 µM
same,TGI,ACHN renal,> 100 µM
same,TGI,CAKI-1 renal,> 100 µM
same,TGI,CCRF-CEM leukemia,> 100 µM
same,TGI,COLO 205 colon,> 100 µM
same,TGI,DLD-1 colon,> 100 µM
same,TGI,DMS 114 small cell lung,> 100 µM
same,TGI,DMS 273 small cell lung,> 100 µM
same,TGI,EKVX NSCLC,> 100 µM
same,TGI,HCC-2998 colon,> 100 µM
same,TGI,HCT-116 colon,> 100 µM
same,TGI,HCT-15 colon,> 100 µM
same,TGI,HL-60(TB) leukemia,> 100 µM
same,TGI,HOP-62 NSCLC,> 100 µM
same,TGI,HOP-92 NSCLC,> 100 µM
same,TGI,HT29 colon,> 100 µM
same,TGI,IGROV1 ovarian,> 100 µM
same,TGI,K-562 leukemia,> 100 µM
same,TGI,KM12 colon,> 100 µM
same,TGI,KM20L2 colon,> 100 µM
same,TGI,LOX IMVI melanoma,> 100 µM
same,TGI,LXFL 529 NSCLC,> 100 µM
same,TGI,M14 melanoma,> 100 µM
same,TGI,M19-MEL melanoma,> 100 µM
same,TGI,MALME-3M melanoma,> 100 µM
same,TGI,MOLT-4 leukemia,> 100 µM
same,TGI,NCI-H226 lung,> 100 µM
same,TGI,NCI-H23 lung,> 100 µM
same,TGI,NCI-H460 lung,> 100 µM
same,TGI,NCI-H522 lung,> 100 µM
same,TGI,OVCAR-3 ovarian,> 100 µM
same,TGI,OVCAR-4 ovarian,> 100 µM
same,TGI,OVCAR-5 ovarian,> 100 µM
same,TGI,OVCAR-8 ovarian,> 100 µM
same,TGI,RPMI-8226 leukemia,> 100 µM
same,TGI,RXF-631 renal,> 100 µM
same,TGI,SF-268 CNS,> 100 µM
same,TGI,SF-295 CNS,> 100 µM
same,TGI,SF-539 CNS,> 100 µM
same,TGI,SK-MEL-2 melanoma,> 100 µM
same,TGI,SK-MEL-28 melanoma,> 100 µM
same,TGI,SK-MEL-5 melanoma,> 100 µM
same,TGI,SK-OV-3 ovarian,> 100 µM
same,TGI,SN12C renal,> 100 µM
same,TGI,SNB-19 CNS,> 100 µM
same,TGI,SNB-75 CNS,> 100 µM
same,TGI,SNB-78 CNS,> 100 µM
same,TGI,SW-620 colon,> 100 µM
same,TGI,TK-10 renal,> 100 µM
same,TGI,U251 CNS,> 100 µM
same,TGI,UACC-257 melanoma,> 100 µM
same,TGI,UACC-62 melanoma,> 100 µM
same,TGI,UO-31 renal,> 100 µM
same,TGI,XF 498 CNS,> 100 µM
CC1=C2[C@@H](c3ccccc3)C3C=CC2(C=C3C(F)(F)F)N(C(=O)NC2CCCCC2)C1=O (some centres not stated),TGI,786-0 renal,> 100 µM
same,TGI,A498 renal,> 100 µM
same,TGI,A549 NSCLC,> 100 µM
same,TGI,ACHN renal,> 100 µM
same,TGI,CAKI-1 renal,> 100 µM
same,TGI,CCRF-CEM leukemia,> 100 µM
same,TGI,COLO 205 colon,> 100 µM
same,TGI,DLD-1 colon,> 100 µM
same,TGI,DMS 114 small cell lung,> 100 µM
same,TGI,DMS 273 small cell lung,> 100 µM
same,TGI,EKVX NSCLC,> 100 µM
same,TGI,HCC-2998 colon,> 100 µM
same,TGI,HCT-116 colon,> 100 µM
same,TGI,HCT-15 colon,> 100 µM
same,TGI,HL-60(TB) leukemia,39.2 µM
same,TGI,HOP-18 NSCLC,> 100 µM
same,TGI,HOP-62 NSCLC,> 100 µM
same,TGI,HOP-92 NSCLC,> 100 µM
same,TGI,HT29 colon,> 100 µM
same,TGI,IGROV1 ovarian,> 100 µM
same,TGI,K-562 leukemia,> 100 µM
same,TGI,KM12 colon,> 100 µM
same,TGI,KM20L2 colon,> 100 µM
same,TGI,LOX IMVI melanoma,> 100 µM
same,TGI,LXFL 529 NSCLC,> 100 µM
same,TGI,M14 melanoma,> 100 µM
same,TGI,M19-MEL melanoma,> 100 µM
same,TGI,MALME-3M melanoma,> 100 µM
same,TGI,MOLT-4 leukemia,> 100 µM
same,TGI,NCI-H23 lung,> 100 µM
same,TGI,NCI-H460 lung,> 100 µM
same,TGI,OVCAR-3 ovarian,> 100 µM
same,TGI,OVCAR-4 ovarian,> 100 µM
same,TGI,OVCAR-5 ovarian,> 100 µM
same,TGI,OVCAR-8 ovarian,> 100 µM
same,TGI,RXF 393 renal,> 100 µM
same,TGI,RXF-631 renal,> 100 µM
same,TGI,SF-268 CNS,> 100 µM
same,TGI,SF-295 CNS,> 100 µM
same,TGI,SF-539 CNS,> 100 µM
same,TGI,SK-MEL-28 melanoma,> 100 µM
same,TGI,SK-MEL-5 melanoma,> 100 µM
same,TGI,SK-OV-3 ovarian,> 100 µM
same,TGI,SN12C renal,> 100 µM
same,TGI,SNB-19 CNS,> 100 µM
same,TGI,SNB-75 CNS,> 100 µM
same,TGI,SNB-78 CNS,> 100 µM
same,TGI,SR leukemia,66.8 µM
same,TGI,SW-620 colon,> 100 µM
same,TGI,TK-10 renal,> 100 µM
same,TGI,U251 CNS,> 100 µM
same,TGI,UACC-257 melanoma,> 100 µM
same,TGI,UACC-62 melanoma,> 100 µM
same,TGI,UO-31 renal,> 100 µM
same,TGI,XF 498 CNS,> 100 µM

# Source: PubChem BioAssay (NCI)
